The values below come from PMC10910009, “Comparing ATPase activity of ATP-binding cassette subfamily C member 4, lamprey CFTR, and human CFTR using an antimony-phosphomolybdate assay” (Frontiers in Pharmacology, 2024).

In one data set the target is T1, Lp-CFTR (Petromyzon marinus, UniProt A0A5Q0TXR8).
T1 construct: lamprey CFTR in pFastBac vector with 6xHis tag; baculovirus/Sf9 crude plasma membranes, not purified; PKA-phosphorylated
T1 sequence (A0A5Q0TXR8 1-1466): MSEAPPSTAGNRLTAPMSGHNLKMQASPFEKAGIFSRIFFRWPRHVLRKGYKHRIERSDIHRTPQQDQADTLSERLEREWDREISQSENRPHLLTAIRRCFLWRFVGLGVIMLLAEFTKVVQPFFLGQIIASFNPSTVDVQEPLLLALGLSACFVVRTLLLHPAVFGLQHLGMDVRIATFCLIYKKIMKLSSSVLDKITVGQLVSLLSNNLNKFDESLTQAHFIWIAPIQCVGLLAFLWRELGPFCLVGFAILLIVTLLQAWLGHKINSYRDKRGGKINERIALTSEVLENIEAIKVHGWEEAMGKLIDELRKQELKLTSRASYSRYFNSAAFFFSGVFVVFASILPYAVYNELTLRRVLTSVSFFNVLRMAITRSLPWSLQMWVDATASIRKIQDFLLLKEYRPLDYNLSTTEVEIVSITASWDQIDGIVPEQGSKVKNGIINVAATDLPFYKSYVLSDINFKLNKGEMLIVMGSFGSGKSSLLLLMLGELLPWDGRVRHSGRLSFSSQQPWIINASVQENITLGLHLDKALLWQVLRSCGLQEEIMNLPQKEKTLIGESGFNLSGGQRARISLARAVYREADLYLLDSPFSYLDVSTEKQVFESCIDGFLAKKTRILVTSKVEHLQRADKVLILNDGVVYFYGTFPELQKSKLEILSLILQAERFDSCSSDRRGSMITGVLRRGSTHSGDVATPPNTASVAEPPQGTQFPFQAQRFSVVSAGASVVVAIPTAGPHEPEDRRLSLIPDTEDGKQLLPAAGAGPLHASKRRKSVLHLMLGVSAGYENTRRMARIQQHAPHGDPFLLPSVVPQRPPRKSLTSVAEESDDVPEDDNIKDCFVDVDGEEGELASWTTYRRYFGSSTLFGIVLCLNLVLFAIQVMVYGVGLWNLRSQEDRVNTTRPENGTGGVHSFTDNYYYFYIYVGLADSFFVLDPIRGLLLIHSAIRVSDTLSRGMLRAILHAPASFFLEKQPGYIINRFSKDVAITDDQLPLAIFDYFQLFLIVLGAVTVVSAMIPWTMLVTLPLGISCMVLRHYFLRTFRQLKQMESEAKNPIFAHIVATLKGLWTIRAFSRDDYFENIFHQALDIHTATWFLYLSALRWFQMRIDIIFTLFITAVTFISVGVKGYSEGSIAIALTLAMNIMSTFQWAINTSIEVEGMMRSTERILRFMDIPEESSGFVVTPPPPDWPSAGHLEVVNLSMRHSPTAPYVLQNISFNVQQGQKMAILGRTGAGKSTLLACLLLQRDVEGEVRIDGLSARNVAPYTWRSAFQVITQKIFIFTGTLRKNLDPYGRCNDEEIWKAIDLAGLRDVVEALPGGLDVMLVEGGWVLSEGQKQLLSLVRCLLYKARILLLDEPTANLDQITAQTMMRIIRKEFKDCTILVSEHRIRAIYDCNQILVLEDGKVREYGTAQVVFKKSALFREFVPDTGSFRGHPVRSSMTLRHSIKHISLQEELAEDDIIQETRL
Description: antimony-phosphomolybdate Pi release (ATPase). It counts as biochemical. To be noted: Sf9 crude membranes, control membranes subtracted; 1 mM Na2ATP, 5 mM MgCl2, PKA, pH 7.4, 30 °C, 1 h.

The target of another data set is T2, hCFTR (Homo sapiens, UniProt P13569).
T2 construct: gene CFTR
Conditions: Sf9 crude membranes, control membranes subtracted; 1 mM Na2ATP, 5 mM MgCl2, PKA, pH 7.4, 30 °C, 1 h.

Substrate in data set [1]: Nc1ncnc2c1ncn2[C@@H]1O[C@H](COP(=O)(O)OP(=O)(O)OP(=O)(O)O)[C@@H](O)[C@H]1O
Description: antimony-phosphomolybdate Pi release (ATPase), Michaelis-Menten fit. It counts as biochemical, Homo sapiens. To be noted: printed as Kd but from Michaelis-Menten fit of ATPase activity, Sf9 crude membranes, control membranes subtracted, 5 mM MgCl2, pH 7.4, 37 °C, 20 min, no PKA, no transport substrate.

T2 sequence (P13569 whole entry): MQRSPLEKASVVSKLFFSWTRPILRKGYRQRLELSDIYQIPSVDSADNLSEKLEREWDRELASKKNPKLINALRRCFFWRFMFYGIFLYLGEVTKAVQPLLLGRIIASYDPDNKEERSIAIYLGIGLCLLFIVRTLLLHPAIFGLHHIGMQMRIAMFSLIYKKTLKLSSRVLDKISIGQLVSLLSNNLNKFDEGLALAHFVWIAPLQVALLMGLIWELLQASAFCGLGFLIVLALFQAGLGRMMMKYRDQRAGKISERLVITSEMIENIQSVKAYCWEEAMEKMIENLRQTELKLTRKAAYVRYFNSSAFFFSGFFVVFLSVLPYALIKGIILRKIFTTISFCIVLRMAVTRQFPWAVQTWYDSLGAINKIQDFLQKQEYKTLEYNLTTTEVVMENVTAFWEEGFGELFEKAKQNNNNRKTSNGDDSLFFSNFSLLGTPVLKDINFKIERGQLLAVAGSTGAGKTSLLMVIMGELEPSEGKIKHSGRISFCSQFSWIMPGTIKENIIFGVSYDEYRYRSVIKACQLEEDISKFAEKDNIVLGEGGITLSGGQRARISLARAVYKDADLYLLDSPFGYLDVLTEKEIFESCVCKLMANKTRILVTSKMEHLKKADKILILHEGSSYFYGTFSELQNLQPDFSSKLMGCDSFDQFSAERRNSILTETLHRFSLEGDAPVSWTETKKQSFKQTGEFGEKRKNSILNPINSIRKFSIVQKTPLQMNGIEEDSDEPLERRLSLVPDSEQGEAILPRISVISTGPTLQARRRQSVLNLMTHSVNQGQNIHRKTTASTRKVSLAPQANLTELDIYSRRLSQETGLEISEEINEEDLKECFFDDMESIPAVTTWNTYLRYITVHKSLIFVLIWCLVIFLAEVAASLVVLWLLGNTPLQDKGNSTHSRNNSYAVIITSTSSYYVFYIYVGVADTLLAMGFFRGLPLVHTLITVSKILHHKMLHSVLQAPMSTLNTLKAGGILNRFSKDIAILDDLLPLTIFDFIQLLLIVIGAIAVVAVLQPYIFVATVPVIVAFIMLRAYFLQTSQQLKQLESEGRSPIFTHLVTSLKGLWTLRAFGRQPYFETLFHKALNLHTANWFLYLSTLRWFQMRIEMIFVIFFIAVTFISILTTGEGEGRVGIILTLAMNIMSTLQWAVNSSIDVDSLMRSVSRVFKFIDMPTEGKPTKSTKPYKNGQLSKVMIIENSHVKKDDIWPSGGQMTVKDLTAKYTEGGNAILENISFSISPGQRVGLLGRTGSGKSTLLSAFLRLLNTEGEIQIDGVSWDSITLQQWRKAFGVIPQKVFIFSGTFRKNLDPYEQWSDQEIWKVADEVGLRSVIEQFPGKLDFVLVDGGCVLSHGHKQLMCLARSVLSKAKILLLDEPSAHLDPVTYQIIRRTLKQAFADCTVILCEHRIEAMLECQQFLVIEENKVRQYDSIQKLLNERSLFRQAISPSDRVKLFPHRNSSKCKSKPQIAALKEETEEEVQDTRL

With `Nc1ncnc2c1ncn2[C@@H]1O[C@H](COP(=O)(O)OP(=O)(O)OP(=O)(O)O)[C@@H](O)[C@H]1O` [ATP], the “antimony-phosphomolybdate Pi release (ATPase)” value at Lp-CFTR was “Lp-CFTR exhibited higher ATPase activity in high PKA compared to low PKA conditions”; at hCFTR, “hCFTR exhibited higher ATPase activity in high PKA compared to low PKA conditions”.

B1: hABCC4 (Homo sapiens) (protein)
chain: MLPVYQEVKPNPLQDANLCSRVFFWWLNPLFKIGHKRRLEEDDMYSVLPEDRSQHLGEELQGFWDKEVLRAENDAQKPSLTRAIIKCYWKSYLVLGIFTLIEESAKVIQPIFLGKIINYFENYDPMDSVALNTAYAYATVLTFCTLILAILHHLYFYHVQCAGMRLRVAMCHMIYRKALRLSNMAMGKTTTGQIVNLLSNDVNKFDQVTVFLHFLWAGPLQAIAVTALLWMEIGISCLAGMAVLIILLPLQSCFGKLFSSLRSKTATFTDARIRTMNEVITGIRIIKMYAWEKSFSNLITNLRKKEISKILRSSCLRGMNLASFFSASKIIVFVTFTTYVLLGSVITASRVFVAVTLYGAVRLTVTLFFPSAIERVSEAIVSIRRIQTFLLLDEISQRNRQLPSDGKKMVHVQDFTAFWDKASETPTLQGLSFTVRPGELLAVVGPVGAGKSSLLSAVLGELAPSHGLVSVHGRIAYVSQQPWVFSGTLRSNILFGKKYEKERYEKVIKACALKKDLQLLEDGDLTVIGDRGTTLSGGQKARVNLARAVYQDADIYLLDDPLSAVDAEVSRHLFELCICQILHEKITILVTHQLQYLKAASQILILKDGKMVQKGTYTEFLKSGIDFGSLLKKDNEESEQPPVPGTPTLRNRTFSESSVWSQQSSRPSLKDGALESQDTENVPVTLSEENRSEGKVGFQAYKNYFRAGAHWIVFIFLILLNTAAQVAYVLQDWWLSYWANKQSMLNVTVNGGGNVTEKLDLNWYLGIYSGLTVATVLFGIARSLLVFYVLVNSSQTLHNKMFESILKAPVLFFDRNPIGRILNRFSKDIGHLDDLLPLTFLDFIQTLLQVVGVVSVAVAVIPWIAIPLVPLGIIFIFLRRYFLETSRDVKRLESTTRSPVFSHLSSSLQGLWTIRAYKAEERCQELFDAHQDLHSEAWFLFLTTSRWFAVRLDAICAMFVIIVAFGSLILAKTLDAGQVGLALSYALTLMGMFQWCVRQSAEVENMMISVERVIEYTDLEKEAPWEYQKRPPPAWPHEGVIIFDNVNFMYSPGGPLVLKHLTALIKSQEKVGIVGRTGAGKSSLISALFRLSEPEGKIWIDKILTTEIGLHDLRKKMSIIPQEPVLFTGTMRKNLDPFNEHTDEELWNALQEVQLKETIEDLPGKMDTELAESGSNFSVGQRQLVCLARAILRKNQILIIDEATANVDPRTDELIQKKIREKFAHCTVLTIAHRLNTIIDSDKIMVLDSGRLKEYDEPYVLLQNKESLFYKMVQQLGKAEAAALTETAKQVYFKRNYPHIGHTDHMVTNTSNGQPSTLTIFETAL
notes: human ABCC4 in pFastBac vector with 6xHis tag; baculovirus/Sf9 crude plasma membranes, not purified
Consider B1, for which the Michaelis constant (Km) in data set [1] amounted to 550 ± 280 µM.
